Test [1] deals with GDP-bound KRAS wild-type protein (Homo sapiens, UniProt P01116). Put plainly: Binding to KRAS by surface plasmon resonance (SPR), Single Cycle Kinetics. To be noted: GDP-bound KRAS wild-type protein, read-out: KRAS KD. In general terms: In SPR one partner is held on a chip, and binding of the other changes the refractive index at the surface.
For test [2], the target named is GDP-bound HRAS wild-type protein (Homo sapiens, UniProt P01112). As to the kind of experiment: Binding to HRAS by surface plasmon resonance (SPR), Single Cycle Kinetics. The conditions noted are these: for HRAS/KRAS (ratio of KD value for HRAS to KD value for KRAS): SPR, GDP-bound HRAS wild-type protein vs GDP-bound KRAS wild-type protein.
Sequence of GDP-bound HRAS wild-type protein (P01112 whole entry): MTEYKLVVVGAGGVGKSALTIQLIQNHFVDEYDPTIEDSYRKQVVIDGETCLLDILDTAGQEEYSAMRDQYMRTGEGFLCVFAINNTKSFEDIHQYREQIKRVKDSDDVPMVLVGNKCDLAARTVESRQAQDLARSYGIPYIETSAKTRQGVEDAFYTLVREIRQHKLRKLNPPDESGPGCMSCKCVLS
Test [3] has as its target GDP-bound NRAS wild-type protein (Homo sapiens, UniProt P01111). Put plainly: Binding to NRAS by surface plasmon resonance (SPR), Single Cycle Kinetics. The conditions noted are these: for NRAS/KRAS (ratio of KD value for NRAS to KD value for KRAS): SPR, GDP-bound NRAS wild-type protein vs GDP-bound KRAS wild-type protein.
The mark [4] stands for this setting: SPR Single Cycle Kinetics, 1:1 binding model.

Consider eleven compounds from patent publication US20240158446A1, “CYCLIC COMPOUND HAVING SELECTIVE INHIBITORY ACTION ON KRAS OVER HRAS AND NRAS” (CHUGAI SEIYAKU KABUSHIKI KAISHA, priority 2021, published 2024).

Where two headings read alike, the source gives them in different places. *1 amine or outer side, *2 acyl side, *3 side chain or, on linkers, in order; H or OH if unused. Where a SMILES comes first, the peptide text is derived from it. Bridges are numbered along the chain shown (N, C = ends). [ ]: non-standard residue; d: D form. The star is where a group is joined. hPhe(3-Cl-4-CF3) = N[C@@H](CCc1ccc(C(F)(F)F)c(Cl)c1)C(=O)O; NPrPhe(4-CF3) = CCCN[C@@H](Cc1ccc(C(F)(F)F)cc1)C(=O)O; X10 = C=CCN([C@@H](Cc1ccc(C)cc1)C(=O)[*:2])[*:1]; X53 = C#CCN([C@@H](Cc1ccc(C)cc1)C(=O)[*:2])[*:1]; NMeGly(cPent) = CN[C@H](C(=O)O)C1CCCC1; Pro(4S-Me) = C[C@@H]1CN[C@H](C(=O)O)C1; Hyp = O=C(O)[C@@H]1C[C@@H](O)CN1; NMeD = CN[C@@H](CC(=O)O)C(=O)O; NMeL = CN[C@@H](CC(C)C)C(=O)O; Morpholide = C1CN(*)CCO1; NMeA = CN[C@@H](C)C(=O)O; Ac5c = NC1(C(=O)O)CCCC1; Aze = O=C(O)[C@@H]1CCN1; Ac4c = NC1(C(=O)O)CCC1; NEtG = CCNCC(=O)O; Sar = CNCC(=O)O

Sequence of GDP-bound KRAS wild-type protein (P01116 whole entry): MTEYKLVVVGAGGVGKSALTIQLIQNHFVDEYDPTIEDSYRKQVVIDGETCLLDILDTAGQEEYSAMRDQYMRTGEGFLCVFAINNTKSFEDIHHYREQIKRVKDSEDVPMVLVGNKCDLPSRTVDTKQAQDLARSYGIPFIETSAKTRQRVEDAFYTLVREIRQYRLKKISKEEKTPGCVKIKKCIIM
Sequence of GDP-bound NRAS wild-type protein (P01111 whole entry): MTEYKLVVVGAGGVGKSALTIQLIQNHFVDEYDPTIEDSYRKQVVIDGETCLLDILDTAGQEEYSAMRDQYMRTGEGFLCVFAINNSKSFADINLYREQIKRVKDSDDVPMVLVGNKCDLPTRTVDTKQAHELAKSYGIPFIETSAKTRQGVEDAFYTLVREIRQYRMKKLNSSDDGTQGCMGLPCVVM

For the compound `C=CCN1C(=O)[C@@H]2CCN2C(=O)[C@H](C)N(C)C(=O)[C@H]([C@@H](C)CC)NC(=O)[C@H](CC(C)C)N(C)C(=O)C[C@@H](C(=O)N2CCOCC2)N(C)C(=O)[C@H](C2CCCC2)N(C)C(=O)C2(CCCC2)NC(=O)[C@@H]2CCCN2C(=O)[C@H](CCc2ccc(C(F)(F)F)c(Cl)c2)NC(=O)CN(C)C(=O)[C@@H]1Cc1ccc(C)cc1` [PP0088] ([NMeL]I[NMeA][Aze][X10][Sar][hPhe(3-Cl-4-CF3)]P[Ac5c][NMeGly(cPent)][NMeD]-Morpholide; lactam N-11), the Kd in test [1] (setting [4]) came out at 0.12 nM. Same read-out and setting: for `CCCN1C(=O)[C@@H]2CCN2C(=O)[C@H](C)N(C)C(=O)[C@H]([C@@H](C)CC)NC(=O)[C@H](CC(C)C)N(C)C(=O)C[C@@H](C(=O)N(C)C)N(C)C(=O)[C@H](C2CCCC2)N(C)C(=O)C2(CCC2)NC(=O)[C@@H]2C[C@@H](OCC)CN2C(=O)[C@H](CCc2ccc(C(F)(F)F)c(Cl)c2)NC(=O)CN(C)C(=O)[C@@H]1Cc1ccc(C(F)(F)F)cc1` [PP0439] ([NMeL]I[NMeA][Aze][NPrPhe(4-CF3)][Sar][hPhe(3-Cl-4-CF3)][Hyp](Et)[Ac4c][NMeGly(cPent)][NMeD]-NMe2; lactam N-11) the value was 0.021 nM. Same read-out and setting: then `CCCN1C(=O)[C@@H]2CCN2C(=O)CN(C)C(=O)[C@H]([C@@H](C)CC)NC(=O)[C@H](CC(C)C)N(C)C(=O)C[C@@H](C(=O)N(C)C)NC(=O)[C@H](C2CCCC2)N(C)C(=O)C2(CCCC2)NC(=O)[C@@H]2CCCN2C(=O)[C@H](CCc2ccc(C(F)(F)F)c(Cl)c2)NC(=O)CN(C)C(=O)[C@@H]1Cc1ccc(C(F)(F)F)cc1` [PP0385] ([NMeL]I[Sar][Aze][NPrPhe(4-CF3)][Sar][hPhe(3-Cl-4-CF3)]P[Ac5c][NMeGly(cPent)]D-NMe2; lactam N-11), with 0.37 nM. On to `CCO[C@@H]1C[C@H]2C(=O)NC3(CCC3)C(=O)N(C)[C@@H](C3CCCC3)C(=O)N(C)[C@H](C(=O)N3CCCC3)CC(=O)N(C)[C@H]3CCCCC/C=C/c4ccc(cc4)C[C@@H](C(=O)N(C)CC(=O)N[C@@H](CCc4ccc(Cl)c(Cl)c4)C(=O)N2C1)N1CC/C=C\C[C@@H](C1=O)N(C)C(=O)CN(C)C(=O)[C@H]([C@@H](C)CC)NC3=O` [PP3049], for which the Kd in test [1] (SPR, Single Cycle Kinetics) stood at 0.2 nM.

As to `CCO[C@@H]1C[C@H]2C(=O)NC3(CCC3)C(=O)N(C)[C@@H](C(CC)CC)C(=O)N(C)[C@H](C(=O)N3CCCCC3)CC(=O)N(C)[C@H]3CCCCC/C=C/c4ccc(cc4)C[C@@H](C(=O)N(C)CC(=O)N[C@@H](CCc4ccc(Cl)c(Cl)c4)C(=O)N2C1)N1CC/C=C\C[C@@H](C1=O)N(C)C(=O)CN(C)C(=O)[C@H]([C@@H](C)CC)NC3=O` [PP3051], in test [1] (SPR, Single Cycle Kinetics), the Kd was 0.75 nM.

With `C#CCN1C(=O)[C@@H]2CCN2C(=O)[C@H](C)N(C)C(=O)[C@H]([C@@H](C)CC)NC(=O)[C@H](CC(C)C)N(C)C(=O)C[C@@H](C(=O)N2CCOCC2)N(C)C(=O)[C@H](C2CCCC2)N(C)C(=O)C2(CCCC2)NC(=O)[C@@H]2CCCN2C(=O)[C@H](CCc2ccc(C(F)(F)F)c(Cl)c2)NC(=O)CN(C)C(=O)[C@@H]1Cc1ccc(C)cc1` [PP0090] ([NMeL]I[NMeA][Aze][X53][Sar][hPhe(3-Cl-4-CF3)]P[Ac5c][NMeGly(cPent)][NMeD]-Morpholide; lactam N-11), in test [1] (setting [4]), the Kd came out at 0.083 nM.

For the compound `CCCN1C(=O)CN(C)C(=O)CN(CC)C(=O)[C@H]([C@@H](C)CC)NC(=O)[C@H](CC(C)C)N(C)C(=O)C[C@@H](C(=O)N2CCOCC2)N(C)C(=O)[C@H](C2CCCC2)N(C)C(=O)C2(CCCC2)NC(=O)[C@@H]2C[C@H](C)CN2C(=O)[C@H](CCc2ccc(C(F)(F)F)c(Cl)c2)NC(=O)CN(C)C(=O)[C@@H]1Cc1ccc(C(F)(F)F)cc1` [PP0451] ([NMeL]I[NEtG][Sar][NPrPhe(4-CF3)][Sar][hPhe(3-Cl-4-CF3)][Pro(4S-Me)][Ac5c][NMeGly(cPent)][NMeD]-Morpholide; lactam N-11), the dissociation constant (Kd) in test [1] (setting [4]) is 0.75 nM.

For the compound `CCO[C@@H]1C[C@H]2C(=O)NC3(CC(C)(C)C3)C(=O)N(C)[C@@H](C3CCCC3)C(=O)N(C)[C@@H](C(C)C)CC(=O)N(C)[C@@H](CC3CC3)C(=O)N[C@@H]([C@@H](C)CC)C(=O)N(C)CC(=O)N(C)[C@H]3C/C=C\CCN(C3=O)[C@@H](Cc3ccc(C(F)(F)F)cc3)C(=O)N(C)CC(=O)N[C@@H](CCc3cc(F)c(C(F)(F)F)c(F)c3)C(=O)N2C1` [PP1594], the “HRAS/KRAS (ratio of KD value for HRAS to KD value for KRAS)” value in test [2] (KD ratio class) was “A (a compound having 10 or more and less than 20 is denoted as A)”. Besides, the “NRAS/KRAS (ratio of KD value for NRAS to KD value for KRAS)” value in test [3] (KD ratio class) is “A (a compound having 10 or more and less than 20 is denoted as A)”. On to `CCO[C@@H]1C[C@H]2C(=O)NC3(CCCC3)C(=O)N(C)[C@@H](C3CCCC3)C(=O)N(C)[C@H](C(=O)N(C)C)CC(=O)N(C)[C@@H](CC(C)C)C(=O)N[C@@H]([C@@H](C)CC)C(=O)N(C)CC(=O)N(C)[C@H]3C/C=C\CCN(C3=O)[C@@H](Cc3ccc(C(F)(F)F)cc3)C(=O)N(C)CC(=O)N[C@@H](CCc3cc(F)c(C(F)(F)F)c(F)c3)C(=O)N2C1` [PP1105, (2S,8S,12R,14S,20S,23S,27S,30S,36S,38Z)-20-cyclopentyl-8-[2-[3,5-difluoro-4-(trifluoromethyl)phenyl]ethyl]-12-ethoxy-27-isobutyl-N,N,4,19,22,26,32,35-octamethyl-30-[(1S)-1-methylpropyl]-3,6,9,15,18,21,25,28,31,34,42-undecaoxo-2-[[4-(trifluoromethyl)phenyl]methyl]spiro[1,4,7,10,16,19,22,26,29,32,35-undecazatricyclo[34.5.1.0^10,14]dotetracont-38-ene-17,1′-cyclopentane]-23-carboxamide], for which the “HRAS/KRAS (ratio of KD value for HRAS to KD value for KRAS)” value in test [2] is “A (a compound having 10 or more and less than 20 is denoted as A)”. For the same compound, the “NRAS/KRAS (ratio of KD value for NRAS to KD value for KRAS)” value in test [3] was “A (a compound having 10 or more and less than 20 is denoted as A)”.

In the case of `CCO[C@@H]1C[C@H]2C(=O)NC3(CC(C)(C)C3)C(=O)N(C)[C@@H](C(CC)CC)C(=O)N(C)[C@H](C(=O)N(C)C)CC(=O)N(C)[C@H]3CC/C=C/c4ccc(cc4)C[C@@H](C(=O)N(C)CC(=O)N[C@@H](CCc4cc(F)c(C(F)(F)F)c(F)c4)C(=O)N2C1)N1CC/C=C\C[C@@H](C1=O)N(C)C(=O)CN(C)C(=O)[C@H]([C@@H](C)CC)NC3=O` [PP2586], the “HRAS/KRAS (ratio of KD value with respect to GDP-bound HRAS wild-type protein to KD value with respect to KRAS)” value in test [2] (SPR KD ratio HRAS/KRAS, class symbols) was “B (a compound having 3 or more and less than 10 is denoted as B)”. Also, in test [3] (SPR KD ratio NRAS/KRAS, class symbols), the “NRAS/KRAS (ratio of KD value with respect to GDP-bound NRAS wild-type protein to KD value with respect to KRAS)” value was “A (a compound having 10 or more and less than 20 is denoted as A)”. `CC[C@H](C)[C@@H]1NC(=O)[C@H](CC(C)C)N(C)C(=O)C[C@@H](C(=O)N2CCOCC2)N(C)C(=O)[C@H](C2CCCC2)N(C)C(=O)C2(CCC2)NC(=O)[C@@H]2C[C@@H](OCC3CC3)CN2C(=O)[C@H](CCc2cc(F)c(C(F)(F)F)c(F)c2)NC(=O)CN(C)C(=O)[C@H](Cc2ccc(C(F)(F)F)cc2)N2CCCC[C@@H](C2=O)N(C)C(=O)CN(C)C1=O` [PP1014]: the “HRAS/KRAS (ratio of KD value for HRAS to KD value for KRAS)” value in test [2] was “C (A compound having a KD ratio of 0.1 or more and less than 3 is denoted as C)”. In test [3], the “NRAS/KRAS (ratio of KD value for NRAS to KD value for KRAS)” value was “C (A compound having a KD ratio of 0.1 or more and less than 3 is denoted as C)”.

A word on the Kd: it is the free concentration of one partner at which half of the binding sites on the other are occupied at equilibrium, for simple one-to-one binding.
